11 molecules from ChEMBL document CHEMBL1201862, “PubChem BioAssay data set” (2004) can be followed below.

Each structure is given as a SMILES string.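 How tested: cells in 96-well plates exposed to compound for 48 hours at five concentrations. At the GI50, growth is halved.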 Active and inactive are the calls of the source. No stated cut-off is given here; in the data, active = GI50 up to about 1.1 µM and inactive = higher. Some results are limits rather than exact numbers.

Some test systems named below: A498; ACHN; CAKI-1; CCRF-CEM; COLO 205; EKVX; HCC 2998; HCT-15; HOP-92; K562; OVCAR-3; OVCAR-4; OVCAR-5; SF-295; SF-539; SK-MEL-28; SNB-19; TK-10; UACC-257; LOX IMVI.
What all share (assay): inhibition of tumour cell growth, NCI panel, 48 h

Take `C/C(=C\c1ccc(Cl)cc1)C(C)(C)C(=O)O`: the GI50 is > 100 µM (inactive) with A498; > 100 µM (inactive) in the assay with ACHN; > 100 µM (inactive) in the assay on CAKI-1; 52.5 µM (inactive) in the assay with CCRF-CEM; > 100 µM (inactive) in the assay on COLO 205; > 100 µM (inactive) in the assay with EKVX. Moreover, the GI50 was > 100 µM (inactive) in the assay on HCC 2998; above 100 µM in the assay on HCT-15; > 100 µM (inactive) in the assay on HOP-92; 1.95 µM (inactive) in the assay with K562; > 100 µM (inactive) in the assay with OVCAR-3; > 100 µM (inactive) in the assay on OVCAR-4. The GI50 in the assay on OVCAR-5, in the assay on SF-295, with SF-539, in the assay with SK-MEL-28, with SNB-19 and with TK-10 was > 100 µM (inactive) throughout. Also, in the assay on UACC-257, the GI50 is > 100 µM (inactive).
As for `CC(=O)N(CCN1C(=O)c2ccccc2C1=O)CCN1C(=O)c2ccccc2C1=O`, the GI50 with A498, with ACHN, with CAKI-1, with CCRF-CEM, in the assay with COLO 205 and with EKVX was > 100 µM (inactive) throughout. The GI50 in the assay on HCC 2998 was > 100 µM (inactive); with HCT-15, above 100 µM; in the assay with HOP-92, > 100 µM (inactive); in the assay with K562 it was > 100 µM (inactive); with LOX IMVI, > 100 µM (inactive); with OVCAR-3, > 100 µM (inactive). Further, the GI50 in the assay with OVCAR-4, with SF-295, in the assay on SK-MEL-28, with SNB-19, in the assay with TK-10 and in the assay with UACC-257 was > 100 µM (inactive) throughout.
As for `O=C1CSC(c2ccccc2)N1c1ccc(-c2ccc(-n3c(-c4ccccc4)nc4ccccc4c3=O)cc2)cc1` (stereo not given), the GI50 in the assay with A498 is > 100 µM (inactive); in the assay with ACHN it was 53 µM (inactive); in the assay with CAKI-1, > 100 µM (inactive); in the assay on CCRF-CEM it was 37.2 µM (inactive); in the assay on COLO 205, 38.2 µM (inactive); with EKVX, 55.3 µM (inactive). The GI50 with HCC 2998 is 34.8 µM (inactive); in the assay with HCT-15, 29.2 µM; in the assay on HOP-92 it was > 100 µM (inactive); with K562 it was 33.3 µM (inactive); in the assay with LOX IMVI it was 50.7 µM (inactive); in the assay on OVCAR-3, 46.5 µM (inactive). Also, the GI50 in the assay with OVCAR-4 is 30.5 µM (inactive); in the assay with OVCAR-5, > 100 µM (inactive); in the assay on SF-295, 64.3 µM (inactive); in the assay with SK-MEL-28, > 100 µM (inactive); in the assay with SNB-19, 82.8 µM (inactive); in the assay with TK-10, 57.9 µM (inactive). Further, the GI50 with UACC-257 was > 100 µM (inactive).
`O=C(O)/C=C/c1c[nH]cn1`: the GI50 in the assay with A498, in the assay with CAKI-1, in the assay on COLO 205, in the assay with EKVX, with HCC 2998 and with HOP-92 was > 500 µM (inactive) in each case. The GI50 in the assay with K562, in the assay with LOX IMVI, with OVCAR-3, in the assay with OVCAR-4, in the assay with OVCAR-5 and with SF-295 was > 500 µM (inactive) in each case. In addition, the GI50 with SF-539, in the assay on SK-MEL-28, in the assay with SNB-19 and in the assay on UACC-257 was > 500 µM (inactive) in each case.
In the case of `COC(=O)[C@@H]1c2cc3c(c(O)c2[C@@H](OC)C[C@@]1(C)O)C(=O)c1c(O)cc2c(c1C3=O)OC1O[C@@]2(C)[C@H](O)[C@@H](N(C)C)[C@@H]1O`, the GI50 with A498 is 0.257 µM (active); in the assay with CAKI-1, 0.26 µM (active); in the assay with CCRF-CEM, 0.273 µM (active); with COLO 205 it was 0.257 µM (active); in the assay with EKVX it was 0.345 µM (active); in the assay on HCC 2998, 0.251 µM (active). For the same molecule, the GI50 was 0.597 µM with HCT-15; 0.0764 µM (active) with HOP-92; 0.322 µM (active) in the assay on K562; 0.361 µM (active) in the assay with OVCAR-3; 0.395 µM (active) in the assay on OVCAR-4; 0.508 µM (active) in the assay on OVCAR-5. Moreover, the GI50 was 0.213 µM (active) in the assay on SF-295; 2.69 µM (inactive) in the assay with SF-539; 0.667 µM (active) in the assay on SK-MEL-28; 0.337 µM (active) in the assay with SNB-19; 0.337 µM (active) in the assay with UACC-257.
On to `CC1(C)CNC(=O)C2(/C=N/C(C)(C)CNC(=O)C3(/C=N/1)CCCO3)CCCO2` (stereo not given), for which the GI50 with A498, in the assay on ACHN, in the assay with CAKI-1, in the assay on CCRF-CEM, in the assay on COLO 205 and in the assay with EKVX was > 10 µM (inactive) throughout. Besides, the GI50 is > 10 µM (inactive) in the assay with HCC 2998; above 10 µM in the assay on HCT-15; > 10 µM (inactive) with HOP-92; > 10 µM (inactive) in the assay with K562; > 10 µM (inactive) in the assay on OVCAR-3; > 10 µM (inactive) with OVCAR-4. In addition, the GI50 in the assay with SF-295, with SF-539, in the assay on SK-MEL-28, in the assay on SNB-19, with TK-10 and in the assay on UACC-257 was > 10 µM (inactive) throughout.
With `CCCCCCCCC[C@@H]1C[C@H](O)[C@H](Cc2ccccc2)N1C(=O)OC(C)(C)C`, the GI50 in the assay on A498 was 19.5 µM (inactive); with ACHN, 17.1 µM (inactive); with CAKI-1 it was 21.9 µM (inactive); in the assay with CCRF-CEM, 20.2 µM (inactive); in the assay on COLO 205, 17 µM (inactive); with EKVX, 14.4 µM (inactive). In addition, the GI50 is 14.4 µM (inactive) with HCC 2998; 18.6 µM in the assay on HCT-15; 15 µM (inactive) in the assay on HOP-92; 37.4 µM (inactive) in the assay with K562; 20.3 µM (inactive) in the assay on OVCAR-3; 17.7 µM (inactive) in the assay on OVCAR-4. In addition, the GI50 is 15.1 µM (inactive) in the assay with OVCAR-5; 15.8 µM (inactive) in the assay on SF-295; 20.9 µM (inactive) with SF-539; 19.7 µM (inactive) with SK-MEL-28; 18.6 µM (inactive) with SNB-19; 15.5 µM (inactive) with TK-10. In addition, the GI50 in the assay on UACC-257 is 15.8 µM (inactive).
`CC(C)(C)[Si](C)(C)OCC1CCC(n2cnc3c(N)ncnc32)O1` (stereo not given): the GI50 in the assay on A498 was > 100 µM (inactive); in the assay on CAKI-1 it was > 100 µM (inactive); in the assay on CCRF-CEM it was 13.9 µM (inactive); in the assay with COLO 205, > 100 µM (inactive); with HCT-15, 72.1 µM; in the assay on HOP-92, > 100 µM (inactive). Also, the GI50 in the assay on K562 is 3.45 µM (inactive); in the assay with LOX IMVI, > 100 µM (inactive); in the assay with OVCAR-3 it was 48.9 µM (inactive); in the assay with OVCAR-4, > 100 µM (inactive); in the assay with OVCAR-5, > 100 µM (inactive); in the assay with SF-295, 81.8 µM (inactive). Besides, the GI50 is 72.8 µM (inactive) in the assay with SK-MEL-28, > 100 µM (inactive) in the assay with SNB-19, > 100 µM (inactive) in the assay with TK-10 and 33.7 µM (inactive) in the assay on UACC-257.
For the molecule `Sc1nn2c(COc3cc(Cl)c(OCc4nnc5sc(S)nn45)cc3Cl)nnc2s1`, the GI50 with A498 was > 100 µM (inactive); in the assay with ACHN, 36.1 µM (inactive); in the assay with CAKI-1, > 100 µM (inactive); with COLO 205, > 100 µM (inactive); in the assay on EKVX, 5.51 µM (inactive); with HCC 2998, 36.1 µM (inactive). Further, the GI50 with HCT-15 was 33.1 µM; in the assay with HOP-92, 38.9 µM (inactive); in the assay on K562, 33.7 µM (inactive); with LOX IMVI it was 32.8 µM (inactive); in the assay on OVCAR-3 it was 30.5 µM (inactive); in the assay with OVCAR-4, 51.8 µM (inactive). Also, the GI50 in the assay on OVCAR-5 was > 100 µM (inactive); in the assay with SF-295 it was > 100 µM (inactive); in the assay on SF-539 it was 87.5 µM (inactive); in the assay on SK-MEL-28, 31.3 µM (inactive); in the assay on SNB-19, > 100 µM (inactive); in the assay on TK-10 it was > 100 µM (inactive). In addition, the GI50 with UACC-257 is > 100 µM (inactive).
`CCOC(=O)c1cc(C)nc2c1c(=O)n(-c1ccccc1)c(=O)n2CCCCN1CCN(c2ncccn2)CC1`: the GI50 with A498 is 20.8 µM (inactive); with ACHN it was > 100 µM (inactive); with CAKI-1, 23.4 µM (inactive); in the assay with CCRF-CEM, 31.8 µM (inactive); in the assay with COLO 205, 60.1 µM (inactive); with EKVX it was > 100 µM (inactive). Besides, the GI50 in the assay with HCC 2998 is > 100 µM (inactive); with HOP-92, 34.6 µM (inactive); in the assay with K562, 39.1 µM (inactive); with LOX IMVI it was 56.9 µM (inactive); in the assay with OVCAR-3, 94 µM (inactive); with OVCAR-5, > 100 µM (inactive). Also, the GI50 in the assay on SF-295 is > 100 µM (inactive); in the assay on SK-MEL-28, > 100 µM (inactive); with TK-10, > 100 µM (inactive); with UACC-257, 52.4 µM (inactive).
`CN(CCO)CCC1COc2ccccc2O1` (stereo not given): the GI50 in the assay with A498, with ACHN, with CAKI-1, in the assay on CCRF-CEM, in the assay with COLO 205 and in the assay with EKVX was > 10 µM (inactive) throughout. Further, the GI50 was > 10 µM (inactive) with HCC 2998; above 10 µM in the assay on HCT-15; > 10 µM (inactive) in the assay on K562; > 10 µM (inactive) in the assay on LOX IMVI; > 10 µM (inactive) with OVCAR-3; > 10 µM (inactive) in the assay on OVCAR-4. The GI50 in the assay on OVCAR-5, in the assay with SF-295, in the assay with SF-539, with SK-MEL-28, in the assay on SNB-19 and in the assay on TK-10 was > 10 µM (inactive) in each case.
